Assay [1] deals with Staphylococcus aureus. The assay can be described thus: Antimicrobial activity against methicillin-sensitive Staphylococcus aureus ATCC 29213 at 128 ug/ml by CLSI protocol based method. The class given is functional, organism-based.
Assay [2] concerns Staphylococcus aureus. The assay can be described thus: Antimicrobial activity against methicillin-resistant Staphylococcus aureus MB5393 at 128 ug/ml by CLSI protocol based method. Format: functional, organism-based.
In assay [3] the test system is Escherichia coli. Put plainly: Antimicrobial activity against Escherichia coli ATCC 25922 at 128 ug/ml by CLSI protocol based method. The class given is functional, organism-based.
The test system of assay [4] is Klebsiella pneumoniae. Put plainly: Antimicrobial activity against Klebsiella pneumoniae ATCC 700603 at 128 ug/ml by CLSI protocol based method. The class given is functional, organism-based.
Assay [5] relates to Acinetobacter baumannii. The assay can be described thus: Antimicrobial activity against Acinetobacter baumannii MB5973 at 128 ug/ml by CLSI protocol based method. Format: functional, organism-based.
Assay [6] concerns Pseudomonas aeruginosa. Put plainly: Antimicrobial activity against Pseudomonas aeruginosa PAO1 at 128 ug/ml by CLSI protocol based method. The class given is functional, organism-based.
Assay [7] relates to HepG2. The assay can be described thus: Cytotoxicity in human HepG2 cells incubated for 24 hrs by MTT assay. Format: functional, cell-based. Particulars: for IC50: hepg2. For orientation: Formazan colour is commonly taken as a measure of viable cells.
The test system of assay [8] is A549. Put plainly: Cytotoxicity in human A549 cells incubated for 24 hrs by MTT assay. The class given is functional, cell-based.
The subject of assay [9] is MIA PaCa-2. Put plainly: Cytotoxicity in human MIAPaCa2 cells incubated for 24 hrs by MTT assay. The class given is functional, cell-based.
In assay [10] the test system is Candida albicans. The assay can be described thus: Antimicrobial activity against Candida albicans ATCC 64124 at 128 ug/ml by CLSI protocol based method. The class given is functional, organism-based.

These results are taken from ChEMBL document CHEMBL4316651, “Halogenated Tyrosine Derivatives from the Tropical Eastern Pacific Zoantharians Antipathozoanthus hickmani and Parazoanthus darwini” (J Nat Prod, 2019).

What is called pIC50 is −log10 of the IC50, conventionally taken in molar units.

pIC50: −log10 of the molar value. Activity calls are given as the source filed them. The calls are words filed in the database; no cut-off is given here.

For the molecule `C[N+](C)(C)CC(=O)N[C@@H](Cc1cc(Br)c(O)c(Br)c1)C(=O)O.O=C([O-])C(F)(F)F`, the result in assay [1], in assay [2], in [3], in assay [4], in assay [5] and in assay [6] was inactive. Further, in assay [10], the outcome was inactive. Moreover, the IC50 entry in [7], in assay [8] and in assay [9] was “Not Active” each time.

Turning to `C[N+](C)(C)CCc1cc(Br)c(O)c(I)c1.O=C([O-])C(F)(F)F`, the result in [1], in assay [2], in assay [3], in [4], in assay [5] and in assay [6] was inactive. For the same molecule, the outcome in assay [10] was inactive. The IC50 entry in assay [7], in assay [8] and in [9] was “Not Active” in each case.

As to `C[N+](C)(C)CC(=O)N[C@@H](Cc1cc(Br)c(O)c(I)c1)C(=O)O.O=C([O-])C(F)(F)F`, the result in assay [1], in assay [2], in [3], in [4], in assay [5] and in assay [6] was inactive. The result in assay [10] was inactive. The pIC50 in [7] (Homo sapiens, HepG2, 24 h, read-out: IC50) was 5.11. Moreover, the IC50 result in assay [8] and in [9] was “Not Active” each time.

Regarding `CC(C)=CC(=O)Nc1nc2c([nH]1)[C@H](C)c1[nH]c(NC(=O)C(C)C)nc1CC2`, the result in [1], in [2], in assay [3], in assay [4], in assay [5] and in assay [6] was inactive. For the same molecule, the result in [10] was inactive. Moreover, the IC50 entry in assay [7], in assay [8] and in assay [9] was “Not Active” in each case.

As to `C[N+]1(C)CCC[C@@H]1C(=O)N[C@@H](Cc1cc(Br)c(O)c(Br)c1)C(=O)O.O=C([O-])C(F)(F)F`, the result in assay [1], in assay [2], in assay [3], in assay [4], in assay [5] and in assay [6] was inactive. Besides, the outcome in assay [10] was inactive. Besides, the IC50 result in assay [7], in assay [8] and in [9] was “Not Active” throughout.

Regarding `C[N+]1(C)CCC[C@@H]1C(=O)N[C@@H](Cc1cc(Br)c(O)c(I)c1)C(=O)O`, the outcome in assay [1], in assay [2], in [3], in assay [4], in assay [5] and in assay [6] was inactive. The outcome in [10] was inactive.

With `CCC(C)C(=O)Nc1nc2c([nH]1)[C@@H](C)c1[nH]c(NC(=O)C=C(C)C)nc1CC2` (some centres not stated), the result in assay [1], in [2], in [3], in [4], in [5] and in [6] was inactive. Besides, the outcome in assay [10] was inactive. The IC50 entry in [7], in [8] and in assay [9] was “Not Active” each time.

`C[N+](C)(C)CCc1cc(I)c(O)c(I)c1.O=C([O-])C(F)(F)F`: the result in [1], in assay [2], in [3], in assay [4], in assay [5] and in [6] was inactive. The result in assay [10] was inactive. Moreover, the IC50 result in assay [7], in assay [8] and in assay [9] was “Not Active” each time.
